Reference: patent publication US20100298244A1, “COMPOSITION FOR THE PREVENTION AND THE TREATMENT OF HELICOBACTER PYLORI INFECTION” (NATIONAL TAIWAN UNIVERSITY, priority 2009, published 2010)

Test system: 20 Helicobacter pylori strains
Assay: MIC by agar dilution method
Format: cell-based

MIC Range (20 H. pylori strains (10 resistant to metronidazole and clarithromycin, 10 sensitive)): >4000 µg/mL
MIC (Helicobacter pylori, 20 H. pylori strains, read-out: MIC For 50% of strains): > 4000 µg/mL
MIC90 (Helicobacter pylori, 20 H. pylori strains, read-out: MIC For 90% of strains (MIC90)): > 4000 µg/mL
Structure (SMILES): CC(=O)N[C@H]1[C@H]([C@H](O)[C@H](O)CO)OC(O)(C(=O)O)C[C@@H]1O (stereo partly shown) [Sialic acid, N-Acetylneuraminic acid]
inhibitory activity against Helicobacter pylori (alone): did not show any inhibitory activity
